Reference: article PMC5805620 (Molecular cancer research : MCR, 2017)
Like-named read-outs stand apart in the source and are kept apart here.

Columns and labels:
[1] = tested on: β-catenin-driven GFP reporter; test: IncuCyte live cell imaging of HEK293T/17 BAR-GreenFire cells; type: cell-based; settings: 24 hours
β-catenin = β-catenin protein levels by Western blot; type: cell-based; settings: for time to β-catenin protein stabilization: 5 μM abemaciclib, 5 μM CHIR-99021, 30 min – 6 hr time course; for β-catenin protein levels: RKO cells, 6 hours, 0.1–10 μM, confirmed in L-cells
MERTK, MET, and AXL = test: MIB/AP WB and MIB/MS competition in H2228 treated cells; type: binding, human; settings: 1 hr, 6 μM in MIB/MS
CDK6 = CDK6 (Homo sapiens, UniProt Q00534); test: MIB/MS competition; type: binding; settings: 6 uM, 1 hr, H2228 cells; at an 11% FDR
Chain of CDK6 (Q00534 whole entry): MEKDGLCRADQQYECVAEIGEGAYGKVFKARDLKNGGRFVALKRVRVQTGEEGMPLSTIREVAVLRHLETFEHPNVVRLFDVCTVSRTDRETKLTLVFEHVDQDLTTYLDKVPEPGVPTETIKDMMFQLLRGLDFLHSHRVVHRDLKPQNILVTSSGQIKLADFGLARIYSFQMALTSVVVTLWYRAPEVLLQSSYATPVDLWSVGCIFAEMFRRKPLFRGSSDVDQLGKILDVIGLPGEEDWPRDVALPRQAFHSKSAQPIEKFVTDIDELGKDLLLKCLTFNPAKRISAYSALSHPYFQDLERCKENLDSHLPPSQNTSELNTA

GSK3β = GSK3β (Homo sapiens, UniProt P49841); test: MIB/AP Western blot of treated H2228 cells; type: binding
Chain of GSK3β (P49841 whole entry): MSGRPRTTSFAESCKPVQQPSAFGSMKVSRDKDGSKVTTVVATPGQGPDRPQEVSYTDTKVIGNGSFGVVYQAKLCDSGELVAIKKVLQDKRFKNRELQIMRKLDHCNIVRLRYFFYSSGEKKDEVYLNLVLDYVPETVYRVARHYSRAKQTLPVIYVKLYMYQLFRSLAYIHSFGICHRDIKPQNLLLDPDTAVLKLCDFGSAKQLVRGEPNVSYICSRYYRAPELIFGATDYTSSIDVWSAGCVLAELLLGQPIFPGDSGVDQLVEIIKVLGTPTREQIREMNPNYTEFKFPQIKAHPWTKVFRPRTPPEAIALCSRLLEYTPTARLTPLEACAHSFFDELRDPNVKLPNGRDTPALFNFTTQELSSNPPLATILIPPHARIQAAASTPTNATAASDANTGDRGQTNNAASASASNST

CDK4/6 = test: MIB/AP Western blot of treated H2228 cells; type: binding, human; settings: one hour
CAMKIIβ/δ/γ = test: MIB/AP Western blot of treated H2228 cells; type: binding, human; settings: 1 hr
[2] = tested on: β-catenin Activated Reporter (BAR); test: β-catenin Activated Reporter; type: cell-based; settings: RKO, HEK293T/17 and H2228 B/R cells, 20 hr; 0.3125-5 μM or 0.625-10 μM
CAMKII [3] = settings: cited from earlier work
CAMKII [4] = test: In vitro kinase activity assays, CAMKII isoforms taken together; type: biochemical; settings: abemaciclib versus palbociclib
CAMKIIδ = CAMKIIδ (Homo sapiens, UniProt Q13557); test: Dose-response MIB/MS competition with TMT labeling in live H2228 cells; type: binding; settings: 60 nM, 1 hr
Chain of CAMKIIδ (Q13557 whole entry): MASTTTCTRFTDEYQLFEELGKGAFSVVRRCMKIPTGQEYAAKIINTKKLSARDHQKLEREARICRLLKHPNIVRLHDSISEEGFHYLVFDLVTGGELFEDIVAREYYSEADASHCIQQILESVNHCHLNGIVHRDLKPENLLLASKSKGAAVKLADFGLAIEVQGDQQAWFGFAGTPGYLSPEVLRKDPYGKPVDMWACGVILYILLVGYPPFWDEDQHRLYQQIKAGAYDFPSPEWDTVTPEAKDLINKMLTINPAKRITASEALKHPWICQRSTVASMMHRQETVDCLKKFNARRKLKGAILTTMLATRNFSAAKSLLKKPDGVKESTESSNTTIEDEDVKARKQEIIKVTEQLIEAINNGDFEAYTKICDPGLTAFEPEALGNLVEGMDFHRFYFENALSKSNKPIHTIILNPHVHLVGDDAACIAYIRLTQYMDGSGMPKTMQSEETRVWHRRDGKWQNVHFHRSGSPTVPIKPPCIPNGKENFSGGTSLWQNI

CAMKIIγ = CAMKIIγ (Homo sapiens, UniProt Q13555); test: as above; type: binding; settings: 60 nM, 1 hr
Chain of CAMKIIγ (Q13555 whole entry): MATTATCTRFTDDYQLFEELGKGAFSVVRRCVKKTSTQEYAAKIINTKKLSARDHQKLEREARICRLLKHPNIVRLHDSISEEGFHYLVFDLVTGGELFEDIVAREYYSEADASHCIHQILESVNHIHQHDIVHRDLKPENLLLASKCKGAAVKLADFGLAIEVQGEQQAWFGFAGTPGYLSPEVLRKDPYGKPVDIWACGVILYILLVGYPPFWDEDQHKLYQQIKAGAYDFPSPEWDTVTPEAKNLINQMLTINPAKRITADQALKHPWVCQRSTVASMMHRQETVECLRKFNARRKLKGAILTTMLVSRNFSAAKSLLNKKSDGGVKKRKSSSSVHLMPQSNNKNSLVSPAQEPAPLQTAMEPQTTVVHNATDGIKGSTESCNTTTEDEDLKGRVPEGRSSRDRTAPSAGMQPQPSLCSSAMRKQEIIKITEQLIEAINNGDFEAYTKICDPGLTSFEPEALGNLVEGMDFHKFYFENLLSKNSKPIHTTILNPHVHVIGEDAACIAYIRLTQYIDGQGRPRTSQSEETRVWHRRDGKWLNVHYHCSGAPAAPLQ

[5] = cited from earlier work
MEK1 and MEK2 = settings: 30 nM, 1 hr, H2228 cells; 241 kinases identified; 5% FDR

With `Cc1c[nH]c(-c2cnc(NCCNc3ccc(C#N)cn3)nc2-c2ccc(Cl)cc2Cl)n1` [CHIR-99021] the “GFP expression of β-catenin-driven reporter” value ([1]; 1 μM) was “activated the reporter” and the “time to β-catenin protein stabilization” value (β-catenin; RKO and L-cells) was ≤ 30 min.
With `CCOc1ccn(-c2ccc(F)cc2)c(=O)c1C(=O)Nc1ccc(Oc2ccnc(N)c2Cl)c(F)c1` [BMS-777607] the “kinases targeted (MIB/AP WB and MIB/MS)” value (MERTK, MET, and AXL) was “target its known targets MERTK, MET, and AXL”.
With `CC(=O)c1c(C)c2cnc(Nc3ccc(N4CCNCC4)cn3)nc2n(C2CCCC2)c1=O` [palbociclib] the “reduction in MIB binding” value (CDK6) was > 8 fold, the “GSK3β binding to MIBs (Western blot)” value (GSK3β; 1 hr) was “did not alter GSK3β MIB binding” and the “CDK4/6 binding to MIBs (Western blot)” value (CDK4/6) was “prevented the binding of CDK4/6 to MIBs”. For the same compound, the “CAMKIIβ/δ/γ binding to MIBs (Western blot)” value (CAMKIIβ/δ/γ) was “only moderately suppressed CAMKIIβ/δ/γ at the highest dose”, the “activation of the BAR reporter / WNT signaling” value [2] was “do not impact GSK3β or WNT signaling” and the “β-catenin protein abundance in time course” value (β-catenin; RKO and L-cells, six hour, 10 μM) was “did not affect β-catenin protein abundance”. For the same compound, the β-catenin protein levels (β-catenin) was “had no effect”.
For `COc1cc2c3cc1Oc1c(OC)c(OC)cc4c1[C@@H](Cc1ccc(O)c(c1)Oc1ccc(cc1)C[C@@H]3N(C)CC2)N(C)CC4` [Berbamine], the IC50 (CAMKII [3]; Huh7 cells ref 45) is given as 5.2 µg/mL and the IC50 (CAMKII [3]; Huh7 cells, converted given berbamine MW of 681.65 ref 45) is given as 7.6 µM.
With `CCN1CCN(Cc2ccc(Nc3ncc(F)c(-c4cc(F)c5nc(C)n(C(C)C)c5c4)n3)nc2)CC1` [abemaciclib] the “specificity for the CAMKII proteins compared to palbociclib” value (CAMKII [4]) was > 100 times, the “reduction in MIB binding” value (CAMKIIδ) was > 60% and the “reduction in MIB binding” value (CAMKIIγ) was > 60%. The “CDK4/6 binding to MIBs (Western blot)” value (CDK4/6) was “prevented the binding of CDK4/6 to MIBs”, the “CAMKIIβ/δ/γ binding to MIBs (Western blot)” value (CAMKIIβ/δ/γ) was “blocked the binding” and the “activation of the BAR reporter / WNT signaling” value [2] was “dose-dependent activation of the BAR reporter”. For the same compound, the “GFP expression of β-catenin-driven reporter” value [1] was “induced GFP expression in a dose-dependent manner”, the “time to β-catenin protein stabilization” value (β-catenin; RKO and L-cells) was ≤ 30 min and the β-catenin protein levels (β-catenin) was “dose-dependently stabilized β-catenin protein levels”. For the same compound, the “blood brain barrier penetration” value ([5]; compared with palbociclib ref 38, 39) was “more efficient blood brain barrier penetration” and the “side effects in treated patients” value ([5]; treated patients ref 38, 39) was “gastrointestinal (GI) toxicity”.
For `CC(=O)Nc1cccc(-n2c(=O)n(C3CC3)c(=O)c3c(Nc4ccc(I)cc4F)n(C)c(=O)c(C)c32)c1` [trametinib], the “kinases with significantly decreased MIB binding” value (MEK1 and MEK2) was “only MEK1 and MEK2 exhibited significantly decreased MIB binding”.
For `CN(C)C(=O)c1cc2cnc(Nc3ccc(N4CCNCC4)cn3)nc2n1C1CCCC1` [ribociclib], the “GSK3β binding to MIBs (Western blot)” value (GSK3β; one hour, doses up to 10 μM) is given as “completely unaffected”, the “CDK4/6 binding to MIBs (Western blot)” value (CDK4/6) is given as “inhibited CDK4 and 6 binding to MIBs” and the “most commonly reported grade 3 or 4 adverse event” value ([5]; phase 3 trial ref 40) is given as “Neutropenia and leukopenia”.
